Results on 15 compounds are retold here after US20230158025A1 (UNIVERSITY OF UTAH RESEARCH FOUNDATION, priority 2020, published 2023).

The target of one data set is recombinant human GALK1 (Homo sapiens, UniProt P51570). The data set can be described thus: hGALK1 biochemical activity assay (Kinase-Glo Plus, ATP depletion). As to the method: In vitro hGALK1 activity assays were performed as previously described. Liu et al., Bioorg. Med. Chem. Lett. 25(3): 721-727 (2015), which is incorporated by reference herein for the specific teachings thereof. The biochemical assay was performed by coupling the activity of recombinant human or mouse GALK1 to the Kinase-Glo Plus luminescent ATP detection kit, using ATP depletion as a measure of GALK1 turnover. Specifically, three μL/well of ATP substrate solution (35 μM ATP) in assay buffer (20 mM HEPES pH 8.0, 5 mM MgCl2, 60 mM NaCl, 1 mM DTT, 0.01% BSA final concentration) was dispensed into 1536-well assay plates (Greiner, white solid-bottom medium-binding plates). Aliquots of compound (23 nL solubilized in DMSO) were transferred to the assay plates using a Kalypsys 1536-well pintool such that 11 concentrations with 1/3 dilutions ranging from 57.4 μM-0.97 nM are tested. One μL/well of GALK-galactose solution (5 nM GALK1, 100 μM galactose) in assay buffer was then added, yielding a final reaction volume of 4 μL/well. Following a 1-hour room temperature incubation, 4 μL of Kinase-Glo Plus detection reagent was added to provide an ATP-dependent luminescent readout (final assay volume: 8 μL/well).
For orientation: Kinase-Glo measures the ATP left after a reaction by luminescence.

The target in the next data set is recombinant mouse GALK1 (Mus musculus, UniProt Q9R0N0). Description: mGALK1 biochemical activity assay (Kinase-Glo Plus, ATP depletion). As to the method:
In vitro hGALK1 activity assays were performed as previously described. Liu et al., Bioorg. […] The biochemical assay was performed by coupling the activity of recombinant human or mouse GALK1 to the Kinase-Glo Plus luminescent ATP detection kit, using ATP depletion as a measure of GALK1 turnover. […] One μL/well of GALK-galactose solution (5 nM GALK1, 100 μM galactose) in assay buffer was then added, yielding a final reaction volume of 4 μL/well. Following a 1-hour room temperature incubation, 4 μL of Kinase-Glo Plus detection reagent was added to provide an ATP-dependent luminescent readout (final assay volume: 8 μL/well).

A short description of data set [1]: aqueous kinetic solubility.
Data set [2] can be described thus: rat microsomal stability (RLM).
The next data set in a line: PAMPA permeability. The conditions noted are these: PAMPA.
Where [3] appears, read: recombinant human GALK1, Kinase-Glo Plus ATP depletion, read-out: hGALK.
Where [4] appears, read: recombinant mouse GALK1, Kinase-Glo Plus ATP depletion, read-out: mGALK.
The mark [5] stands for this setting: recombinant mouse GALK1, Kinase-Glo Plus ATP depletion.
Where [6] appears, read: Tables 2-15, 35 μM ATP, 100 μM galactose, 1 h, bracketed figure after some values is undefined and not reported, read-out: mGALK IC50.
Setting [7] is: Tables 2-15, 35 μM ATP, 100 μM galactose, 1 h, bracketed figure after some values (e.g. −1.2) is undefined and not reported, read-out: hGALK IC50.
[8] abbreviates: Tables 2-15, 35 μM ATP, 100 μM galactose, 1 h, bracketed figure after some values is undefined and not reported.

Where two headings read alike, the source gives them in different places.

Chain of recombinant human GALK1 (P51570 whole entry): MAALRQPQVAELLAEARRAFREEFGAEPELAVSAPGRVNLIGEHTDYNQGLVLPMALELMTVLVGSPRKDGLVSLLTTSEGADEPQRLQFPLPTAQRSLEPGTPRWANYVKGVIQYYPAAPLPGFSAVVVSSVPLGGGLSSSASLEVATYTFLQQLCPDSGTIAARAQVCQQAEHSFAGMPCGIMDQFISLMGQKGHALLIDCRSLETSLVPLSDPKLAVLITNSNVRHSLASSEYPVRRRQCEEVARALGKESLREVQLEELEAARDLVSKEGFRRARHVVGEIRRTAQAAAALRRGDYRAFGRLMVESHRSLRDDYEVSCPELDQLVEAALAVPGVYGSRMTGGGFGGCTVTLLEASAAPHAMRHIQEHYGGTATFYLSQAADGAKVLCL
Chain of recombinant mouse GALK1 (Q9R0N0 whole entry): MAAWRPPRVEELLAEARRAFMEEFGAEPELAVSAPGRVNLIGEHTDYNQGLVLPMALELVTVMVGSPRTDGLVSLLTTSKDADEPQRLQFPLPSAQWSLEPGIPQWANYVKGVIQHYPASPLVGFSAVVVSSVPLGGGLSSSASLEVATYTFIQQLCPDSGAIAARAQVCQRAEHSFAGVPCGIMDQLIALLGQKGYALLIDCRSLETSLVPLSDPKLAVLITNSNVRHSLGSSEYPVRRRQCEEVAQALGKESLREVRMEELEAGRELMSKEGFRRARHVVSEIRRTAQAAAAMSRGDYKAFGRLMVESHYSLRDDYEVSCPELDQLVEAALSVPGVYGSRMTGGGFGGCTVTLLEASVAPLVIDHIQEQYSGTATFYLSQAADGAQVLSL

Turning to `COc1ccc(C(=O)O)cc1NC(=O)C1=C(C)NC(Nc2nc3ccc(F)cc3o2)=NC1c1ccccc1Cl` (centres unmarked) [Compound 27, 3-(4-(2-chlorophenyl)-2-((6-fluorobenzo[d]oxazol-2-yl)amino)-6-methyl-1,4-dihydropyrimidine-5-carboxamido)-4-methoxybenzoic acid], the figures for the IC50 on recombinant human GALK1 (setting [3]) and on recombinant mouse GALK1 (setting [4]) were 2.17 µM and 12.2 µM, respectively. Moreover, the “Sol.” value in data set [1] came to 53.3 µg/mL. Further, the “Metab. Stabil. (m)” value in data set [2] (microsomal half-life) is more than 30 m.
For `CNCCNC(=O)C1=C(C)NC(Nc2nc3ccc(F)cc3o2)=NC1c1ccccc1Cl` (centres unmarked) [Compound 33, 4-(2-chlorophenyl)-2-((6-fluorobenzo[d]oxazol-2-yl)amino)-6-methyl-N-(2-(methylamino)ethyl)-1,4-dihydropyrimidine-5-carboxamido] the same measures were 15.3 µM, 6.11 µM, more than 67 µg/mL and more than 30 m.
In the same order, the values of `CC1=C(C(=O)Nc2ccc(CO)cn2)C(c2ccccc2Cl)N=C(Nc2nc3ccc(F)cc3o2)N1` (centres unmarked) [Compound 42, 4-(2-chlorophenyl)-2-((6-fluorobenzo[d]oxazol-2-yl)amino)-N-(5-(hydroxymethyl)pyridin-2-yl)-6-methyl-1,4-dihydropyrimidine-5-carboxamide] are 12.2 µM, 19.3 µM, less than 1 µg/mL and more than 30 m.
For the compound `CC1=C(C(=O)Nc2ccc(Cl)cn2)C(c2ccccc2Cl)N=C(Nc2nc3ccccc3o2)N1` (centres unmarked) [Compound 153, 2-(benzo[d]oxazol-2-ylamino)-4-(2-chlorophenyl)-N-(5-chloropyridin-2-yl)-6-methyl-1,4-dihydropyrimidine-5-carboxamide], the IC50 on recombinant human GALK1 (setting [3]) came to 4.85 µM. In addition, the “mGALK (μM)” value at recombinant mouse GALK1 (setting [5]) is reported as “in- active”. Moreover, in data set [1] (aqueous kinetic solubility), the “Sol.” value is less than 1 µg/mL. The “Metab. Stabil. (m)” value in data set [2] (microsomal stability half-life) was found to be 30.79 m.
As to `CC1=C(C(=O)Nc2ccccc2F)C(c2ccccc2Cl)N=C(Nc2nc3ccccc3o2)N1` (centres unmarked) [Compound 157, 2-(benzo[d]oxazol-2-ylamino)-N-(2-fluorophenyl)-4-(2-chlorophenyl)-6-methyl-1,4-dihydropyrimidine-5-carboxamide], the results for the IC50 on recombinant human GALK1 (setting [3]), on recombinant mouse GALK1 (setting [6]) and on recombinant mouse GALK1 (setting [4]) were 7.69 µM, 9.68 µM and 9.68 µM, respectively. In addition, the “Sol.” value in data set [1] (aqueous kinetic solubility) was less than 1 µg/mL. In addition, the “Metab. Stabil. (m)” value in data set [2] (microsomal stability half-life) is on record as more than 30 m.
Turning to `CC1=C(C(=O)Nc2cccc(F)c2)C(c2ccccc2Cl)N=C(Nc2nc3ccccc3o2)N1` (centres unmarked) [Compound 158, 2-(benzo[d]oxazol-2-ylamino)-N-(3-fluorophenyl)-4-(2-chlorophenyl)-6-methyl-1,4-dihydropyrimidine-5-carboxamide], the IC50 at recombinant human GALK1 (setting [3]) stood at 6.85 µM; on recombinant mouse GALK1 (setting [6]) it was 12.2 µM; on recombinant mouse GALK1 (setting [4]), 12.2 µM. Also, the “Sol.” value in data set [1] (aqueous kinetic solubility) was less than 1 µg/mL. For the same compound, the “Metab. Stabil. (m)” value in data set [2] (microsomal stability half-life) was more than 30 m.
As for `CC1=C(C(=O)Nc2ccc(O)cc2)C(c2ccccc2Cl)N=C(Nc2nc3ccccc3o2)N1` (centres unmarked) [Compound 162, 2-(benzo[d]oxazol-2-ylamino)-N-(4-hydroxyphenyl)-4-(2-chlorophenyl)-6-methyl-1,4-dihydropyrimidine-5-carboxamide], the IC50 at recombinant human GALK1 (setting [3]) was found to be 3.85 µM; at recombinant mouse GALK1 (setting [6]), 9.68 µM; at recombinant mouse GALK1 (setting [4]) it was 9.68 µM. For the same compound, in “PAMPA permeability”, the “Perm. (1 × 10^−6 cm/sec)” value is listed as <14.5 1 × 10^−6 cm/sec. For the same compound, the “Metab. Stabil. (m)” value in data set [2] (microsomal stability half-life) is on record as more than 30 m.
As to `CC1=C(C(=O)Nc2ccc(CN)cc2)C(c2ccccc2Cl)N=C(Nc2nc3ccccc3o2)N1` (centres unmarked) [Compound 169, N-(4-(aminomethyl)phenyl)-2-(benzo[d]oxazol-2-ylamino)-4-(2-chlorophenyl)-6-methyl-1,4-dihydropyrimidine-5-carboxamide], the IC50 on recombinant human GALK1 (setting [7]) was 6.11 µM; on recombinant human GALK1 (setting [3]), 6.11 µM; on recombinant mouse GALK1 (setting [6]), 4.32 µM; at recombinant mouse GALK1 (setting [4]), 4.32 µM. Further, the “Sol.” value in data set [1] (aqueous kinetic solubility) was determined as 10.0 µg/mL. The “Metab. Stabil. (m)” value in data set [2] (microsomal stability half-life) stood at 72.47 m.
As for `COC(=O)Cc1nnc(NC(=O)C2=C(C)NC(Nc3nc4ccccc4o3)=NC2c2ccccc2Cl)s1` (centres unmarked) [Compound 174, methyl 2-(5-(2-(benzo[d]oxazol-2-ylamino)-4-(2-chlorophenyl)-6-methyl-1,4-dihydropyrimidine-5-carboxamido)-1,3,4-thiadiazol-2-yl)acetate], the IC50 on recombinant human GALK1 (setting [7]) and on recombinant human GALK1 (setting [3]) was 6.11 µM in each case. Further, in data set [1] (aqueous kinetic solubility), the “Sol.” value was less than 1 µg/mL. Besides, in data set [2] (microsomal stability half-life), the “Metab. Stabil. (m)” value worked out at 8.0854 m.
Consider `CC1=C(C(=O)Nc2cccc(C(N)=O)c2)C(c2ccccc2Cl)N=C(Nc2nc3ccccc3o2)N1` (centres unmarked) [Compound 177, 2-(benzo[d]oxazol-2-ylamino)-N-(3-carbamoylphenyl)-4-(2-chlorophenyl)-6-methyl-1,4-dihydropyrimidine-5-carboxamide], for which the IC50 at recombinant human GALK1 (setting [7]) stood at 7.69 µM; at recombinant human GALK1 (setting [3]) it was 7.69 µM; on recombinant mouse GALK1 (setting [6]) it was 17.2 µM; on recombinant mouse GALK1 (setting [4]) it was 17.2 µM. The “Sol.” value in data set [1] (aqueous kinetic solubility) is less than 1 µg/mL. Also, the “Metab. Stabil. (m)” value in data set [2] (microsomal stability half-life) is more than 30 m.
Consider `CC1=C(C(=O)Nc2ccc(C(=O)N3CCOCC3)cc2)C(c2ccccc2Cl)N=C(Nc2nc3ccccc3o2)N1` (centres unmarked) [Compound 182, 2-(benzo[d]oxazol-2-ylamino)-4-(2-chlorophenyl)-6-methyl-N-(4-(morpholine-4-carbonyl)phenyl)-1,4-dihydropyrimidine-5-carboxamide], for which the IC50 at recombinant human GALK1 (setting [7]) was 19.3 µM; at recombinant human GALK1 (setting [3]) it was 19.3 µM; on recombinant mouse GALK1 (setting [6]), 21.7 µM; on recombinant mouse GALK1 (setting [4]) it was 21.7 µM. Further, in data set [1] (aqueous kinetic solubility), the “Sol.” value was less than 1 µg/mL. Further, in data set [2] (microsomal stability half-life), the “Metab. Stabil. (m)” value was more than 30 m.
In the case of `CC1=C(C(=O)Nc2cncc(C(=O)O)c2)C(c2ccccc2Cl)N=C(Nc2nc3ccccc3o2)N1` (centres unmarked) [Compound 202, 5-(2-(benzo[d]oxazol-2-ylamino)-4-(2-chlorophenyl)-6-methyl-1,4-dihydropyrimidine-5-carboxamido)nicotinic acid], the IC50 on recombinant human GALK1 (setting [7]) and at recombinant human GALK1 (setting [3]) was 4.32 µM in each case. In addition, the “Sol.” value in data set [1] (aqueous kinetic solubility) is 60.3 µg/mL. In addition, in data set [2] (microsomal stability half-life), the “Metab. Stabil. (m)” value is listed as more than 30 m.
Consider `CC1=C(C(=O)NCc2ccccc2Cl)C(c2ccccc2Cl)N=C(Nc2nc3ccccc3o2)N1` (centres unmarked) [Compound 216, 2-(benzo[d]oxazol-2-ylamino)-N-(2-chlorobenzyl)-4-(2-chlorophenyl)-6-methyl-1,4-dihydropyrimidine-5-carboxamide], for which, on recombinant human GALK1 (Tables 2-15, 35 μM ATP, 100 μM galactose, 1 h, bracketed figure after some values (e.g. −1.2) is undefined and not reported), the “hGALK IC50” value is “inactive”. The “hGALK (μM)” value at recombinant human GALK1 (recombinant human GALK1, Kinase-Glo Plus ATP depletion) is listed as “in- active”. For the same compound, the “mGALK IC50” value on recombinant mouse GALK1 (setting [8]) was “inactive”. Besides, the “mGALK (μM)” value on recombinant mouse GALK1 (setting [5]) is “in- active”. In addition, the “Sol.” value in data set [1] (aqueous kinetic solubility) is less than 1 µg/mL. Besides, the “Metab. Stabil. (m)” value in data set [2] (microsomal stability half-life) worked out at 4.223 m.
`CC1=C(C(=O)NCc2ccc(F)cc2)C(c2ccccc2Cl)N=C(Nc2nc3ccccc3o2)N1` (centres unmarked) [Compound 217]: the IC50 on recombinant human GALK1 (setting [7]) and at recombinant human GALK1 (setting [3]) was 7.69 µM in each case. Moreover, the “mGALK IC50” value on recombinant mouse GALK1 (setting [8]) was “inactive”. Further, on recombinant mouse GALK1 (setting [5]), the “mGALK (μM)” value is “in- active”. In addition, in data set [1] (aqueous kinetic solubility), the “Sol.” value was less than 1 µg/mL. Further, the “Metab. Stabil. (m)” value in data set [2] (microsomal stability half-life) is 11.34 m.
For the compound `CC1=C(C(=O)NCc2ccccc2O)C(c2ccccc2Cl)N=C(Nc2nc3ccccc3o2)N1` (centres unmarked) [Compound 219, 2-(benzo[d]oxazol-2-ylamino)-4-(2-chlorophenyl)-N-(2-hydroxybenzyl)-6-methyl-1,4-dihydropyrimidine-5-carboxamide], the IC50 on recombinant human GALK1 (setting [7]) is 6.85 µM; at recombinant mouse GALK1 (setting [6]) it was 10.9 µM; at recombinant mouse GALK1 (setting [4]) it was 10.9 µM. For the same compound, in the data set “PAMPA permeability”, the “Perm. (1 × 10^−6 cm/sec)” value is <19.3 1 × 10^−6 cm/sec. The “Metab. Stabil. (m)” value in data set [2] (microsomal stability half-life) is reported as 5.188 m.
